Results from patent US20200397796A1, “METHODS OF TREATMENT OF CANCER COMPRISING CHK1 INHIBITORS” (SIERRA ONCOLOGY, INC., priority 2018, published 2020).

Assays:
[1] = biological target: CYP 2A6 (Homo sapiens, UniProt P11509); assay: CYP inhibition, 2A6; type: in vitro ADME; settings: highest concentration investigated
[2] = Single dose PK, rat; type: in vivo
Experimental: (§1) The PK of SRA737 have been determined in the mouse, rat, dog and monkey following oral and IV administration (Table 3). […] An acceptable terminal elimination t1/2 was also observed in each species. […] The plasma protein binding of SRA737 at 1 and 10 μM was examined in mouse, minipig, monkey and human plasma using ultracentrifugation and in dog plasma (10 μM) using rapid equilibrium dialysis.

[3] = Excretion in urine and feces, mice; type: in vivo, mouse; settings: 24-hour collection
Experimental: The excretion of SRA737 has been studied in mice and rats administered SRA737 at either 5 mg/kg IV or 10 mg/kg orally. Urine and feces were collected for a 24-hour period after dosing. In mice, renal excretion of intact SRA737 was consistently low (less than 10% of dose) after both oral and IV administration. Following IV administration of SRA737, less than 8% of the dose was recovered as intact drug in the feces while after oral administration this figure was less than 3%. Excretion of intact SRA737 was lower in the rat than in the mouse with <1% of dose excreted renally over 24 hours and less than 1.5% of dose excreted into the feces over 24 hours.

[4] = system: Pan02; assay: In vivo efficacy, Pan02 syngeneic mouse model; settings: in combination with a PD1/PD-L1 inhibitor; data not shown
Experimental: (§2) A program of in vivo efficacy studies was performed to assess the activity of SRA737 in combination with genotoxic chemotherapy and targeted agents, and as monotherapy.
(§3) One of these models also carried a MYCN amplification. A fourth HGSOC PDX model with partial resistance to PARPi was also sensitive to high dose SRA737 monotherapy.

[5] = system: human hepatocytes; assay: Stability and metabolites in cryopreserved hepatocytes, human; type: in vitro ADME
Experimental: (§4) The formation of SRA737-related metabolites was determined in cryopreserved hepatocytes from human, mouse, rat, dog, minipig and monkey samples after incubation with SRA737 at a nominal concentration of 10 μM for up to 4 hours. […] In the human hepatocyte preparation, approximately 67% of the parent remained after 4 hours of incubation compared to 75% and 7% in the rat and minipig preparations, respectively. Eight human SRA737 metabolites were observed. All SRA737 metabolites formed by human hepatocytes were also formed by monkey hepatocytes. Six metabolites were present at equal or greater abundance in the monkey.

[6] = Plasma protein binding, ultracentrifugation, mouse; type: in vitro ADME; settings: for Percentage Bound / Percentage Free: Mouse plasma
Experimental: as §1

[7] = system: Renca (renal cancer); assay: In vivo efficacy, Renca syngeneic model; set-up: species or system mouse; settings: data not shown
Experimental: as §2, §3

[8] = system: rat hepatocytes; assay: Stability in cryopreserved hepatocytes, rat; type: in vitro ADME; settings: 10 μM, after 4 hours of incubation
Experimental: as §4

[9] = Plasma protein binding, rapid equilibrium dialysis, dog; type: in vitro ADME; settings: 10 μM
Experimental: as §1

[10] = system: MC38; assay: In vivo efficacy, MC38 syngeneic mouse model; settings: in combination with a PD1/PD-L1 inhibitor; data not shown
Experimental: as §2, §3

[11] = biological target: T1, Chk1 (Homo sapiens, UniProt O14757); assay: In vitro genotoxic chemotherapy-induced Chk1 autophosphorylation, checkpoint arrest and cytotoxicity potentiation; type: cell-based
T1 construct: endogenous in cells
T1 sequence (O14757 1-476): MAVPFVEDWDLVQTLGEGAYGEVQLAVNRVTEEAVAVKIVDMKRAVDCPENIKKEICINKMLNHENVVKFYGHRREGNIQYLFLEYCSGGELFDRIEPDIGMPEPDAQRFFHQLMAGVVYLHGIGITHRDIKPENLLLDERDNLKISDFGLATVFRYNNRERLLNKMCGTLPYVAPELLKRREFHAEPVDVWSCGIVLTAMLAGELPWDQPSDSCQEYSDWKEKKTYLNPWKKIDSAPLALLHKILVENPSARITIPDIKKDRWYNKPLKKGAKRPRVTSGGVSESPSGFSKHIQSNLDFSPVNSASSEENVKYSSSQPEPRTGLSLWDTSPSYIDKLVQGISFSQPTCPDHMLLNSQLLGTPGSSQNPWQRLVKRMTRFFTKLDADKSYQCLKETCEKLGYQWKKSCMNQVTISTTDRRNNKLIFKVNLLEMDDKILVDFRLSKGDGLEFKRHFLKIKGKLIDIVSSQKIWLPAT

[12] = GLP 28-day repeat oral dose toxicity and toxicokinetics, mouse
[13] = system: cryopreserved hepatocytes; assay: Rank order of stability in cryopreserved hepatocytes across species; type: in vitro ADME, human, mouse, rat, dog, minipig and monkey; settings: 10 μM, up to 4 hours
Experimental: as §4

[14] = Single dose PK, mouse; type: in vivo
Experimental: as §1

[15] = system: KPC-1 pancreatic cancer; assay: In vivo efficacy, KPC-1 model; set-up: species or system mouse; settings: in combination with standard-dose gemcitabine; data not shown
Experimental: as §2, §3

[16] = in vivo, Rat IV 5 mg/kg single dose
[17] = in vivo, Rat oral 10 mg/kg single dose
[18] = female, mouse, in vivo, po, 10 mg/kg/day
[19] = female, mouse, in vivo, po, 40 mg/kg/day
[20] = female, mouse, in vivo, po, 75 mg/kg/day
[21] = male, mouse, in vivo, po, 10 mg/kg/day
[22] = male, mouse, in vivo, po, 40 mg/kg/day
[23] = male, mouse, in vivo, po, 75 mg/kg/day
[24] = in vivo, Mouse IV 10 mg/kg single dose
[25] = in vivo, Mouse oral 10 mg/kg single dose

CYP 2A6, sequence (P11509 whole entry): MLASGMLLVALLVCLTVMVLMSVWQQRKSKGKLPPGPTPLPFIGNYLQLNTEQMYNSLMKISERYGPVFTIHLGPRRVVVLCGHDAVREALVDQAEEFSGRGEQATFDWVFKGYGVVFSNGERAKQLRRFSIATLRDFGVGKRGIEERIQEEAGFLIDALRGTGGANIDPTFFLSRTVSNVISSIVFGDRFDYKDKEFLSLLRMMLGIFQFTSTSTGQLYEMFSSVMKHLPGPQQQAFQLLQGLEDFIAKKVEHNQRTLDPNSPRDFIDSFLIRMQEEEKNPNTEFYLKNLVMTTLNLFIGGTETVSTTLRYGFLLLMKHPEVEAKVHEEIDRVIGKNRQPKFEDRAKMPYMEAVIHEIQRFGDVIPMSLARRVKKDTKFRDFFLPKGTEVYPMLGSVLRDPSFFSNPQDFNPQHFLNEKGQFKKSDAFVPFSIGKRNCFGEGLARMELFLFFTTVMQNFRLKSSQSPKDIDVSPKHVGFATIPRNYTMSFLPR

## N#Cc1cnc(Nc2cc(NCC3CNCCO3)c(C(F)(F)F)cn2)cn1 (stereo not drawn) [SRA737, 5-[[4-[[morpholin-2-yl]methylamino]-5-(trifluoromethyl)-2-pyridyl]amino]pyrazine-2-carbonitrile]
[1]
  IC50: 10 to 50 µM
[2]; Rat oral 10 mg/kg single dose
  Foral: 42%
[2]; [16]
  AUC(0-t): 1380 ng·h/mL
  half-life: 1 h
[2]; [17]
  AUC(0-t): 1170 ng·h/mL
  Cmax: 190 ng/mL
  Tmax: 2 h
  half-life: 4.6 h
[3]; IV 5 mg/kg
  dose recovered as intact drug in the feces: less than 8 % of the dose
[3]; after both oral (10 mg/kg) and IV (5 mg/kg)
  renal excretion of intact SRA737: less than 10 % of dose
[3]; oral 10 mg/kg
  dose recovered as intact drug in the feces: less than 3 % of the dose
[4]
  antitumor activity: Significant antitumor activity
[5]; compared with mouse, rat, dog, minipig and monkey hepatocytes
  human-specific metabolites: No human-specific metabolites
[5]; human hepatocytes, 10 μM, up to 4 hours
  number of human SRA737 metabolites observed: Eight
[5]; human hepatocytes, 10 μM, after 4 hours of incubation
  parent remained: approximately 67%
[6]; 1 μM
  Percentage Bound: 94.5%
  Percentage Free: 5.5%
[6]; 10 μM
  Percentage Bound: 93.4%
  Percentage Free: 6.6%
[6]; mouse, plasma, summary of 1 and 10 μM
  fraction unbound: 0.06
[6]; mouse, summary of 1 and 10 μM
  plasma protein binding: ~94%
[7]
  single agent efficacy: single agent efficacy
[8]
  parent remained: 75%
[9]
  Percentage Bound: 68.8%
  Percentage Free: 31.2%
[10]
  antitumor activity: Significant antitumor activity
[11]
  cytotoxicity of genotoxic chemotherapeutic agents and targeted agents: dose-dependent potentiation
  genotoxicity-induced checkpoint arrest: dose-dependent inhibition
[11]; data not shown
  genotoxic chemotherapy-induced Chk1 autophosphorylation: potently inhibited
[12]; [18]
  AUC(0-t): 3610 ng·h/mL
  Cmax: 918 ng/mL
  half-life: 5.18 h
[12]; [19]
  AUC(0-t): 24800 ng·h/mL
  Cmax at 28 days: 2350 ng/mL
  half-life: 5.09 h
[12]; [20]
  AUC(0-t): 45500 ng·h/mL
  Cmax: 4030 ng/mL
  half-life: 6.96 h
[12]; [21]
  AUC(0-t): 4410 ng·h/mL
  Cmax: 903 ng/mL
[12]; [22]
  AUC(0-t): 34300 ng·h/mL
  Cmax at 28 days: 3250 ng/mL
  half-life: 6.22 h
[12]; [23]
  AUC(0-t): 68600 ng·h/mL
  Cmax: 5450 ng/mL
  half-life: 8.36 h
[12]; mouse pivotal study, dose-dependent, reversible on cessation
  toxicological findings: bone marrow toxicity
[12]; mouse, in vivo, po
  MTD at 28 days: 75 mg/kg/day
[13]
  rank order of stability from most stable to least stable: rat≈mouse>monkey≈human>>dog>>minipig
[14]; Mouse oral 10 mg/kg single dose
  Foral: 105%
[14]; [24]
  AUC(0-t): 3770 ng·h/mL
  half-life: 2.9 h
[14]; [25]
  AUC(0-t): 3940 ng·h/mL
  Cmax: 610 ng/mL
  Tmax: 1 h
  half-life: 2.8 h
[15]
  antitumor activity: Significant, dose-dependent antitumor activity
